In patent publication US7211572B2 (Japan Tobacco Inc., priority 2003, dated 2007) one finds IC50 data, which are given here for 8 molecules.

Counter-ions that a name gives are not always drawn.

This assay has as its target T1, HIV integrase (Human immunodeficiency virus type 1 group M subtype B, UniProt P12497, F1332H).
T1 construct: HIV integrase full length gene; made in house; host or cells: Escherichia coli BL21(DE3), plasmid pET21a-INH
Put plainly: Determination of enzyme (HIV integrase) inhibitory activity. Format: biochemical. The note with it: recombinant HIV integrase (F185H), strand transfer ELISA, absorbance at 450 nm. The essentials: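 Full-length integrase with F185H, expressed in E. coli and purified, was reacted for 60 min at 37 °C with compound and biotinylated donor DNA bound to streptavidin plates. Target DNA was added for 10 min, then anti-digoxigenin-peroxidase detection at A450; IC50 from % inhibition versus enzyme-free blank.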
In the case of `O=C(O)c1cn(Cc2cccc(Cl)c2)c(=O)c2c(O)c(=O)ccn12` [Example 98, 2-(3-chlorobenzyl)-9-hydroxy-1,8-dioxo-1,8-dihydro-2H-pyrido[1,2-a]pyrazine-4-carboxylic acid], the IC50 was 10 to 100 nM.
Turning to `O=C(OC1CCCCC1)c1cn2ccn(Cc3cccc(Cl)c3)c(=O)c2c(O)c1=O` [Example 160, cyclohexyl 2-(3-chlorobenzyl)-9-hydroxy-1,8-dioxo-1,8-dihydro-2H-pyrido[1,2-a]pyrazine-7-carboxylate], the IC50 lay within 10 to 100 nM.
The value for `O=C1c2c(O)c(=O)c(-c3nccs3)cn2CCN1Cc1ccc2ccccc2c1` [Example 311, 9-hydroxy-2-(naphthalen-2-ylmethyl)-7-(thiazol-2-yl)-3,4-dihydro-2H-pyrido[1,2-a]pyrazine-1,8-dione] was under 10 nM; that for `O=Cc1cn(Cc2cccc(Cl)c2)c(=O)c2c(O)c(=O)ccn12` [Example 101, 2-(3-chlorobenzyl)-9-hydroxy-1,8-dioxo-1,8-dihydro-2H-pyrido[1,2-a]pyrazine-4-carbaldehyde] was 10 to 100 nM; that for `O=c1ncn2ccn(Cc3cccc(Cl)c3)c(=O)c2c1O` [Example 100, 2-(3-chlorobenzyl)-9-hydroxy-2H-pyrazino[1,2-c]pyrimidine-1,8-dione hydrochloride] was 10 to 100 nM.
For the molecule `O=c1c(-c2ncccn2)cn2ccn(Cc3cccc(Cl)c3)c(=O)c2c1O` [Example 170, 2-(3-chlorobenzyl)-9-hydroxy-7-(pyrimidin-2-yl)-2H-pyrido[1,2-a]pyrazine-1,8-dione hydrochloride], the IC50 lay in the range of 10 to 100 nM.
The same measure for `O=c1c(-c2ccccn2)cn2ccn(Cc3ccc(F)c(F)c3)c(=O)c2c1O` [Example 369, 2-(3,4-difluorobenzyl)-9-hydroxy-7-(pyridin-2-yl)-2H-pyrido[1,2-a]pyrazine-1,8-dione hydrochloride]: under 10 nM; for `CNC(=O)c1cc(=O)c(O)c2n1CCN(Cc1ccc(Cl)c(Cl)c1)C2=O` [Example 56, N-methyl-2-(3,4-dichlorobenzyl)-9-hydroxy-1,8-dioxo-1,3,4,8-tetrahydro-2H-pyrido[1,2-a]pyrazine-6-carboxamide]: 10 to 100 nM.

In general, IC50 refers to the midpoint of a concentration-inhibition curve.
